Data published in publication PMC5889738 (Biomaterials, 2018).

System: OCI-AML2 cells
Assay: flow cytometry of apoptosis and live-dead cell staining
Assay type: cell-based, human
Conditions: OCI-AML2, 6 μM, 48 h

`COc1ccc(C2=N[C@@H](c3ccc(Cl)cc3)[C@@H](c3ccc(Cl)cc3)N2C(=O)N2CCNC(=O)C2)c(OC(C)C)c1` [Nutlin-3] was tested, and the “apoptosis / sensitivity of OCI-AML2” value was “significantly less sensitive”.
